In PMC12012479, “Structural and functional characterization of the brain-specific dynamin superfamily member RNF112” (Proceedings of the National Academy of Sciences of the …, 2025):
Numbering of substitutions follows the chain as printed. One block for each compound: values may come before it.

Legend:
RNF112T (xlRNF112T) [1] = target: T1, RNF112T (xlRNF112T) (Xenopus laevis, UniProt Q2VPQ0); assay: X-ray crystal structure (form […] from GTPγS, […] Å; form […] by soaking); assay type: binding; conditions: nucleotide pocket of GTPase domain
T1 construct: gene rnf112.2.L; GTPase domain + three-helix middle domain; His6-SUMO tag cut by ULP1; E. coli; monomer, dimer with GDP-AlF4-
T1 sequence (Q2VPQ0 120-541 limits assumed): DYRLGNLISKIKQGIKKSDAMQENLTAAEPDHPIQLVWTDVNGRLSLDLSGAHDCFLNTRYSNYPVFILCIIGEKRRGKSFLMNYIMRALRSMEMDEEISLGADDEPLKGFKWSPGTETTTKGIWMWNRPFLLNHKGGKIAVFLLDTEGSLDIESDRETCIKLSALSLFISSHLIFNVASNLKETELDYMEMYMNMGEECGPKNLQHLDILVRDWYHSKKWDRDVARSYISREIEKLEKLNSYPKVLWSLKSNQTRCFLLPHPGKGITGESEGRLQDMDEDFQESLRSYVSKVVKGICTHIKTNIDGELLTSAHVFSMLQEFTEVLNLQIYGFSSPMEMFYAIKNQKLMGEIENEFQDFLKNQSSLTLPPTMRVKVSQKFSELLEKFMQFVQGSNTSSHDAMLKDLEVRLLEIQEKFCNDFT

RNF112T (xlRNF112T) [2] = target: T1, RNF112T (xlRNF112T); assay: ITC; assay type: binding; conditions: 5 mM MgCl2, 150 mM NaCl, pH 7.4, 25 °C
Text: ITC on RNF112T (xlRNF112T) | binding GTPγS and GDP with dissociation constants (Kd) in the micromolar range

mouse RNF112T = target: T2, mouse RNF112T (Mus musculus, UniProt Q96DY5); assay: GTP hydrolysis assay; assay type: biochemical; conditions: 1 mM GTP, 20 μM protein, 1 mM MnCl2, pH 7.0, 37 °C
T2 construct: gene Rnf112; truncated, GTPase domain + middle domain (borders not in main text); E. coli
T2 sequence (Q96DY5 170-563 limits assumed): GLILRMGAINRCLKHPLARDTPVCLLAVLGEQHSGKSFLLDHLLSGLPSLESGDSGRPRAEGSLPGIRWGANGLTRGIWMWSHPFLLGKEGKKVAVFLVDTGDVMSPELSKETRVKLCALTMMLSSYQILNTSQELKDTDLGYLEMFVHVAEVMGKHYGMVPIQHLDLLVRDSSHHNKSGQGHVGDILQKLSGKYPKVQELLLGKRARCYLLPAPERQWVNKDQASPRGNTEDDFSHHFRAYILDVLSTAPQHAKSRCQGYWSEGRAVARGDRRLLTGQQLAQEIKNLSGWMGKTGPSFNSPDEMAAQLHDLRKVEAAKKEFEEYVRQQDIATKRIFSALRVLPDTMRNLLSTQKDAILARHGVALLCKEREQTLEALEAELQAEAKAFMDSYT

RNF112F [3] = target: T3, RNF112F (Xenopus laevis, UniProt Q2VPQ0, T240A, form not given); assay: binding assay in SI Fig. S9; conditions: GTPase-deficient mutant
T3 construct: gene rnf112.2.L; near-full-length, residues 60 to 541 (RING, GTPase and middle domains); His6-SUMO tag cut by ULP1; E. coli; dimer with GDP-AlF4-
T3 sequence (Q2VPQ0 60-541 T240A): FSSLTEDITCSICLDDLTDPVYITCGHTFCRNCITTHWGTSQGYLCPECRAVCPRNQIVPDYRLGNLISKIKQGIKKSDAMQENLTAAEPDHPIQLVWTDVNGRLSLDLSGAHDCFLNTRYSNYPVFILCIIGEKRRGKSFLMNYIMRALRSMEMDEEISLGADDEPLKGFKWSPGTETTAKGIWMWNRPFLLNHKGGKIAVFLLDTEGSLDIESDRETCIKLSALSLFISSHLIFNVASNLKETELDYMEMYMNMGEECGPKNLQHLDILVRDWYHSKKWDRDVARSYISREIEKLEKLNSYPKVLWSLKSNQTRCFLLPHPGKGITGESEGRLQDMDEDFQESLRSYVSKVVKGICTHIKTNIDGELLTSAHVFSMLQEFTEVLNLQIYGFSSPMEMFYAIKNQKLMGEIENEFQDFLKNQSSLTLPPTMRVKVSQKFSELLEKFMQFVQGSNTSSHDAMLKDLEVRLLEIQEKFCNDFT

RNF112F [4] = target: T4, RNF112F (Xenopus laevis, UniProt Q2VPQ0); assay: GTP hydrolysis assay; assay type: biochemical; conditions: 1 mM GTP, 20 μM protein, 1 mM MnCl2, pH 7.0, 37 °C
T4 construct: gene rnf112.2.L; near-full-length, residues 60 to 541 (RING, GTPase and middle domains); His6-SUMO tag cut by ULP1; E. coli; dimer with GDP-AlF4-
T4 sequence (Q2VPQ0 60-541): T3 sequence (Q2VPQ0 60-541 T240A) with A181T

human RNF112T = target: T5, human RNF112T (Homo sapiens, UniProt Q9ULX5); assay: GTP hydrolysis assay; assay type: biochemical; conditions: 1 mM GTP, 20 μM protein, 1 mM MnCl2, pH 7.0, 37 °C
T5 construct: gene RNF112; truncated, GTPase domain + middle domain (borders not in main text); E. coli
T5 sequence (Q9ULX5 150-540 limits assumed): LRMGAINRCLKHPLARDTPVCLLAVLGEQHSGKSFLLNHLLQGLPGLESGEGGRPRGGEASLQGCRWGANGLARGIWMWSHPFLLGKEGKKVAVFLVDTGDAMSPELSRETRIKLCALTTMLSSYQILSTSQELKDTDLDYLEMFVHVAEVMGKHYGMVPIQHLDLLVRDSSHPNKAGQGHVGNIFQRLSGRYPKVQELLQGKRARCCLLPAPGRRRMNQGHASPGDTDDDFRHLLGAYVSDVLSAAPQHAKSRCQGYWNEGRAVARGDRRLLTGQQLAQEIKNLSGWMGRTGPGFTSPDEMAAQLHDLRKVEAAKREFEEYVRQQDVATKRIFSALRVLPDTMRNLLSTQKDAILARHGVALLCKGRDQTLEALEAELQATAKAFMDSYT

[5] = target: near-full-length Xenopus laevis RNF112 containing residues 60 to 541 (RNF112F) (Xenopus laevis); assay: SEC; analytical gel filtration in the presence of GDP•AlF4^−

- Kd (RNF112T (xlRNF112T) [2]): 14.4 ± 2.5 µM
Compound: Nc1nc2c(ncn2[C@@H]2O[C@H](COP(=O)(O)OP(=O)(O)O)[C@@H](O)[C@H]2O)c(=O)[nH]1 [GDP]
- X-ray crystal structure (form 1 from GTPγS, 2.2 Å; form 2 by soaking) (RNF112T (xlRNF112T) [1]): GDP-bound RNF112T structure derived from a nucleotide-free RNF112T crystal soaked with GDP

Compound: Nc1nc2c(ncn2[C@@H]2O[C@H](COP(=O)(O)OP(=O)(O)OP(=O)(O)O)[C@@H](O)[C@H]2O)c(=O)[nH]1 [GTP]
- GTP hydrolysis assay (mouse RNF112T): purified human and mouse RNF112T had relatively weak GTPase activity
- binding assay in SI Fig. S9 (RNF112F [3]): GTPase-deficient mutant RNF112F(T240A), which bound GTP but did not dimerize
- GTP hydrolysis assay (RNF112F [4]): showed similar GTPase activity as RNF112T
- GTP hydrolysis assay (human RNF112T): purified human and mouse RNF112T had relatively weak GTPase activity

- stoichiometry N [5]: 2
Compound: near-full-length Xenopus laevis RNF112 containing residues 60 to 541 (RNF112F) (domain or fragment)
